{"source": "patent US20180110803A1", "about": "“Neutral Electrolyzed Water and Uses Thereof” (priority 2016, published 2018)", "tested_on": "Wistar rats", "assay": "formalin model of inflammatory pain", "type": "in vivo", "conditions": "100 mg/paw subcutaneous, 5 minutes before formalin"}
{"smiles": "O=C(c1ccccc1)c1ccc2n1CCC2C(=O)O", "note": "(stereo not shown) [Ketorolac, ketorolac]", "values": [{"measurement": "reduction of inflammatory pain (nociceptive response)", "result": "~50", "unit": "%"}]}
